Columns and labels:
[1] = tested on: D-283MED (Other Solid Carcinomas); experiment: combination Emax (second highest fraction inhibited in the dose matrix, 72 h); higher = more inhibition; extreme values may be limits of the assay
Outline: (§1)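 Bliss excess equals the observed combination effect minus the expected value EA + EB − EA·EB, where EA and EB are the effects of each agent alone. Combination Emax is the second-highest inhibition within the matrix. Inhibition was scaled from CellTiter-Glo 2.0 luminescence, with 0 set by vehicle wells and 1 by blank wells, after 72 hours of two-drug dosing of cells plated in 1536-well plates.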

[2] = tested on: SW48 (Colorectal Carcinoma); experiment: as above
Outline: as §1

[3] = tested on: DOK (Oral Cavity Carcinoma); experiment: as above
Outline: as §1

Saos-2 (Osteosarcoma) = experiment: as above
Outline: as §1

[4] = tested on: P31-FUJ (Acute Myeloid Leukemia); experiment: as above
Outline: as §1

[5] = tested on: HCT-116 (Colorectal Carcinoma); experiment: as above
Outline: as §1

[6] = tested on: NOMO-1 (Acute Myeloid Leukemia); experiment: as above
Outline: as §1

[7] = tested on: WSU-DLCL2 (B-Cell Non-Hodgkin's Lymphoma); experiment: as above
Outline: as §1

HCC38 (Breast Carcinoma) = experiment: as above
Outline: as §1

[8] = tested on: CAL-39 (Other Solid Carcinomas); experiment: as above
Outline: as §1

[9] = tested on: TC-YIK (Other Solid Carcinomas); experiment: as above
Outline: as §1

[10] = tested on: MEG-01 (Chronic Myelogenous Leukemia); experiment: as above
Outline: as §1

EW-22 (Ewing's Sarcoma) = experiment: as above
Outline: as §1

[11] = tested on: SW948 (Colorectal Carcinoma); experiment: as above
Outline: as §1

H4 (Low Grade Glioma) = experiment: Bliss excess, mean over the matrix (fraction); higher = more synergy
Outline: as §1

[12] = tested on: FU-OV-1 (Ovarian Carcinoma); experiment: as above
Outline: as §1

[13] = tested on: WSU-DLCL2 (B-Cell Non-Hodgkin's Lymphoma); experiment: as above
Outline: as §1

[14] = tested on: SNG-M (Endometrial Carcinoma); experiment: as above
Outline: as §1

[15] = tested on: HLE (Hepatocellular Carcinoma); experiment: as above
Outline: as §1

[16] = tested on: TC-YIK (Other Solid Carcinomas); experiment: as above
Outline: as §1

Row | Compound | combination Emax [1] | combination Emax [2] | combination Emax [3] | combination Emax (Saos-2 (Osteosarcoma)) | combination Emax [4] | combination Emax [5] | combination Emax [6] | combination Emax [7] | combination Emax (HCC38 (Breast Carcinoma)) | combination Emax [8] | combination Emax [9] | combination Emax [10] | combination Emax (EW-22 (Ewing's Sarcoma)) | combination Emax [11] | Bliss excess (H4 (Low Grade Glioma)) | Bliss excess [12] | Bliss excess [13] | Bliss excess [14] | Bliss excess [15] | Bliss excess [16]
1 | N#Cc1cnc(Nc2cc(NC[C@H]3CNCCO3)c(C(F)(F)F)cn2)cn1 [SRA737] + C=CCn1c(=O)c2cnc(Nc3ccc(N4CCN(C)CC4)cc3)nc2n1-c1cccc(C(C)(C)O)n1 [AZD1775] (first compound max 10 µM, partner max 1 µM) | 1 | 0.764 | 0.481 | 0.811 | 0.973 | 0.758 | 0.988 | 1 | 0.576 | 0.454 | 0.858 | 0.935 | 0.873 | 0.807 | 0.0327 | 0.0719 | 0.205 | -0.0045 | 0.013 | 0.0278
2 | Cc1c2c(nn1C)CSCc1cc(n(C)n1)CSc1cc(c3ccccc3c1)OCCCc1c(C(=O)O)n(C)c3c-2c(Cl)ccc13 [AZD5991] + CS(=O)(=O)CCNCc1ccc(-c2ccc3ncnc(Nc4ccc(OCc5cccc(F)c5)c(Cl)c4)c3c2)o1 [Lapatinib] (first compound max 1 µM, 7x7, partner max 10 µM) | 0.986 | 0.649 | 0.987 | 0.497 | 0.985 | 0.382 | 0.88 | 1 | 0.366 | 0.998 | 0.26 | 0.557 | 0.41 | 0.26 | 0.0407 | -0.0179 | 0.0601 | -0.0254 | 0.0311 | -0.0418
3 | O=C(c1cc(Cc2n[nH]c(=O)c3ccccc23)ccc1F)N1CCN(C(=O)C2CC2)CC1 [Olaparib] + Cc1c2c(nn1C)CSCc1cc(n(C)n1)CSc1cc(c3ccccc3c1)OCCCc1c(C(=O)O)n(C)c3c-2c(Cl)ccc13 [AZD5991] (first compound max 10 µM, 7x7, partner max 1 µM) | 0.9 | 0.178 | 0.381 | 0.384 | 0.964 | 0.37 | 0.771 | 0.996 | 0.156 | 0.21 | 0.449 | 0.116 | 0.93 | 0.158 | 0.0256 | -0.071 | 0.0378 | 0.002 | -0.0144 | -0.0566
4 | C[C@@H]1COCCN1c1cc(C2([S@](C)(=N)=O)CC2)nc(-c2ccnc3[nH]ccc23)n1 [AZD6738] + Nc1ccn([C@@H]2O[C@H](CO)[C@@H](O)C2(F)F)c(=O)n1 [Gemcitabine] (first compound max 10 µM, 7x7, partner max 0.3 µM) | 1 | 0.818 | 0.782 | 0.83 | 1 | 0.947 | 1 | 1 | 0.744 | 0.961 | 0.893 | 0.945 | 0.949 | 0.873 | 0.0184 | -0.0143 | 0.0721 | -0.0277 | 0.105 | -0.0046
5 | Cc1cc2ncnn2cc1Nc1ncc2c(n1)n(C1CCOCC1)c(=O)n2C [AZD7648] + COc1cc([C@@H]2c3cc4c(cc3[C@@H](O[C@@H]3O[C@@H]5CO[C@@H](C)O[C@H]5[C@H](O)[C@H]3O)[C@H]3COC(=O)[C@H]23)OCO4)cc(OC)c1O [Etoposide] (first compound max 10 µM, 7x7, partner max 10 µM) | 0.979 | 0.883 | 0.572 | 0.827 | 0.967 | 0.725 | 0.98 | 1 | 0.486 | 0.701 | 0.976 | 0.854 | 0.938 | 0.524 | 0.0976 | -0.0047 | 0.185 | 0.157 | 0.116 | 0.0886
6 | C=CCn1c(=O)c2cnc(Nc3ccc(N4CCN(C)CC4)cc3)nc2n1-c1cccc(C(C)(C)O)n1 [AZD1775] + Nc1ccn([C@@H]2O[C@H](CO)[C@@H](O)C2(F)F)c(=O)n1 [Gemcitabine] (first compound max 1 µM, partner max 0.3 µM) | 0.995 | 0.887 | 0.66 | 0.843 | 1 | 0.88 | 0.992 | 1 | 0.747 | 0.914 | 0.865 | 0.918 | 0.921 | 0.879 | -0.0148 | -0.0741 | 0.0694 | -0.0314 | 0.0609 | -0.0642
7 | CN(CCO)CC[C@H](CSc1ccccc1)Nc1ccc(S(=O)(=O)NC(=O)c2ccc(N3CCC([C@@H](O)c4ccccc4-c4ccc(Cl)cc4)CC3)cc2)cc1S(=O)(=O)C(F)(F)F [AZD4320] + Nc1ccn([C@@H]2O[C@H](CO)[C@@H](O)C2(F)F)c(=O)n1 [Gemcitabine] (first compound max 1 µM, 7x7, partner max 0.3 µM) | 1 | 0.972 | 0.859 | 0.984 | 0.959 | 0.899 | 0.987 | 1 | 0.813 | 0.97 | 1 | 0.93 | 0.999 | 0.524 | 0.0194 | -0.0498 | 0.0032 | -0.0568 | 0.0579 | -0.0091
8 | C[C@@H](Nc1cc(F)cc(F)c1)c1cc(C(=O)N(C)C)cc2c(=O)cc(N3CCOCC3)oc12 [AZD8186] + CC(=O)c1c(C)c2cnc(Nc3ccc(N4CCNCC4)cn3)nc2n(C2CCCC2)c1=O [Palbociclib] (first compound max 10 µM, 7x7, partner max 10 µM) | 0.831 | 0.617 | 0.538 | 0.329 | 0.277 | 0.684 | 0.568 | 0.762 | 0.209 | 0.772 | 0.741 | 0.182 | 0.45 | 0.433 | 0.122 | -0.0311 | 0.0762 | -0.0361 | 0.0326 | 0.036
9 | Cc1c2c(nn1C)CSCc1cc(n(C)n1)CSc1cc(c3ccccc3c1)OCCCc1c(C(=O)O)n(C)c3c-2c(Cl)ccc13 [AZD5991] + Nc1ccn([C@@H]2O[C@H](CO)[C@@H](O)C2(F)F)c(=O)n1 [Gemcitabine] (first compound max 1 µM, 7x7, partner max 0.3 µM) | 0.986 | 0.822 | 0.684 |  | 0.992 | 0.828 | 0.997 | 1 | 0.711 | 0.899 | 0.877 | 0.745 | 0.933 | 0.334 | -0.0393 | -0.0321 | 0.0128 | -0.0174 | 0.0249 | -0.0315
10 | CN(CCO)CC[C@H](CSc1ccccc1)Nc1ccc(S(=O)(=O)NC(=O)c2ccc(N3CCC([C@@H](O)c4ccccc4-c4ccc(Cl)cc4)CC3)cc2)cc1S(=O)(=O)C(F)(F)F [AZD4320] + CC(=O)O[C@H]1C(=O)[C@@]2(C)[C@H]([C@H](OC(=O)c3ccccc3)[C@]3(O)C[C@H](OC(=O)[C@H](O)[C@@H](NC(=O)c4ccccc4)c4ccccc4)C(C)=C1C3(C)C)[C@]1(OC(C)=O)CO[C@@H]1C[C@@H]2O [Paclitaxel] (first compound max 1 µM, 7x7, partner max 3 µM) | 1 | 1 | 0.99 | 0.968 | 1 | 1 | 0.985 | 1 | 0.77 | 1 | 1 | 0.991 | 0.999 | 0.942 | -0.0229 | 0.0924 | -0.0101 | 0.0275 | -0.0036 | 0.0183
11 | O=C(c1cc(Cc2n[nH]c(=O)c3ccccc23)ccc1F)N1CCN(C(=O)C2CC2)CC1 [Olaparib] + COc1nnc2ccc(N3CCC(c4ccc(OCCN5CCN(C)C(=O)[C@H]5C)cc4)CC3)nn12 [AZD5153] (first compound max 10 µM, 7x7, partner max 1 µM) | 0.881 | 0.561 | 0.445 | 0.454 | 0.57 | 0.741 | 0.939 | 0.949 | 0.412 | 0.518 | 0.85 | 0.76 | 0.909 | 0.428 | -0.0248 | -0.0107 | -0.0091 | -0.0663 | -0.0392 | -0.0784
12 | C[C@@H](Oc1cc(-c2cnn(C3CCNCC3)c2)cnc1N)c1c(Cl)ccc(F)c1Cl [Crizotinib] + CC1=C(C(=CC=C1)Cl)NC(=O)C2=CN=C(S2)NC3=CC(=NC(=N3)C)N4CCN(CC4)CCO [Dasatinib] (first compound max 10 µM, 7x7, partner max 2 µM) | 0.979 | 0.892 | 1 | 0.986 | 0.792 | 0.95 | 0.528 | 0.751 | 0.348 | 0.987 | 0.796 | 1 | 0.766 | 0.793 | 0.0857 | 0.0761 | 0.0824 | 0.0813 | 0.0195 | -0.0378
13 | N#Cc1cnc(Nc2cc(NC[C@H]3CNCCO3)c(C(F)(F)F)cn2)cn1 [SRA737] + O=c1[nH]cc(F)c(=O)[nH]1 [5-Fluorouracil] (first compound max 10 µM, 7x7, partner max 20 µM) |  | 0.592 | 0.345 | 0.457 | 0.98 | 0.737 | 0.985 |  | 0.507 | 0.345 | 0.723 | 0.835 | 0.736 | 0.45 | -0.0189 | -0.0284 | 0.114 | -0.0115 | -0.0146 | 0.0119

Source: the supplement of paper PMC11061612
